# Test results: patent US20040152665A1, “Amelioration of decreased weight and growth by n-acylated glucosamines” (priority 2003, published 2004)
# What was measured:
# [1] = Experiment 1: weight gain of rats on restricted diet (20 g crushed chow/day) with supplement mixed in chow; assay type: in vivo, Sprague-Dawley male rats; details: for average weights and rates of weight gain and growth: days 4 to 11, 20 g chow/day supplemented with 1.0 g GlcNBu or 0.75 g Glc (equimolar) per day per animal; for average weights and rates of weight gain and growth / average rates of weight gain and growth and body weights: compared to control; for average rates of weight gain and growth and body weights: days 12 to 18, 20 g chow/day supplemented with 1.5 g GlcNBu or 1.148 g Glc (equimolar) per day per animal; for stimulation of weight gain and growth (overall, Experiment 1): oral supplementation of restricted diet, 18 days
# Text: Twelve Sprague-Dawley male rats of body weights between 85 and 90 g each were placed in metabolic cages with access to food, each in an individual separate feeding compartment, so the animals could consume all their food without loss or spillage. Each morning 20 g of crushed commercial chow, which was less than the average determined amount of crushed chow these animals consume. ad lib, was placed in each individual feeding compartment. This procedure ensured that each animal would completely consume all of the crushed chow placed in each feeding compartment over the 24 hours starting with the said placement of the food. Supplementation of the crushed chow with the compounds to be tested was accomplished by mixing the compound with the chow. All test compounds were fully acceptable by the animals and the feeding compartments were emptied by the animals of the crushed chow and any test compound mixed therein, within 24 hr from the beginning of each feeding period. The animals were allowed free access to drinking water throughout the experimental period, which they consumed ad lib. The animals, obtained from a single commercial shipment, were randomly assigned to three experimental groups with four animals in each group. The experimental groups of animals are designated in FIG. 1 (A & B) as control; N-butyryl-D-glucosamine, shown as formula (II) and abbreviated as GlcNBu; and D-glucose abbreviated as Glc.
# Starting at day 1 and continuing to day 12, inclusive, supplementations of the 20 g of crushed chow per day per animal were as following: Control group—no supplementation; GlcNBu group—supplementation with 1.0 g of GlcNBu per day per animal; Glc—supplementation with 0.75 g of Glc per day per animal, which corresponds to an equimolar amount of this GlcNBu supplementation.
# On day 12 and continuing through day 18, the crushed chow (20 g given per day per animal) was further supplemented as follows: Control group—no supplementation; GlcNBu group—supplementation with 1.5 g of GlcNBu per day per animal; Glc —supplementation with 1.148 g of Glc per day per animal, which corresponds to an equimolar amount of this GlcNBu supplementation. It will be observed from FIG. 1 that there was no difference in the average rates of weight gain and growth or weights of the animals in the Glc and the control experimental groups of animals during the period of 12 to 18 days, inclusive.
# epiphyseal growth plate = assay: Experiment 5: 35S[SO4] autoradiography of epiphyseal growth plates; assay type: in vivo, rats; details: for mean density value of autoradiograms in the region of the epiphyseal growth plate (area under scan curve; black = 0, white = 255): 20 hours after 20 μCi 35S[SO4] i.p. on day 18 of Experiment 1, 12 autoradiograms per group, control 125.6; for incorporation of radioisotope into sulfated glycosaminoglycans of proteoglycans of the epiphyseal growth plates, compared to control: 20 hours after 35S[SO4] injection
# Description: At the end of Experiment 1, described above, the rats were injected intra-peritonealy with 20 μCi of ^35S[SO4] in 1 ml of saline on day 18 and sacrificed 20 hours after the injection. The femurs were removed and the distal ends of the bones were processed histologically for autoradiography. Histological sections of the bones were used to make autoradiograms on X-ray film and were also processed for routine histology, including Toluidine blue staining for assessment of the proteoglycans in the growth plate. No histological abnormalities were detected in the histology sections obtained from any of the experimental groups of animals. The density of the autoradiograms in the region of the epiphyseal growth plate was evaluated and quantified utilizing a scanning microscope and the appropriate software. The software calculates the density of the autoradiogram by scoring a black region (maximally incorporated radioactivity) as 0 and a white region (no incorporated radioactivity) as 255. The areas under the curves of the scan of the autoradiogram (see FIG. 5) are then computed to give the stated values. The mean values of all of the autoradiograms (12 autoradiograms for each group of animals) were: Control, 125.6; Glc-supplemented, 127.1; GlcNBu—supplemented, 143.2. FIG. 5 illustrates scans of typical autoradiograms for the control, Glc-supplemented and GlcNBu-supplemented groups. Each scan is illustrated by a curve whose bases (at the top right and left of the figure) represent radioisotope incorporation at the periphery of the epiphyseal growth plate, while the trough of the curve (in the central part of the figure) represents radioisotope incorporation in the central part of the epiphyseal growth plate. It can be seen that for each of the experimental groups less radioactivity has been incorporated in the central part of the epiphyseal growth plates (the trough of the curve), compared to the periphery of the epiphyseal growth plate (the bases of the curve). The curves with the deepest, middle and least troughs represent autoradiograms from the epiphyses of animals fed with GlcNBu (dots-dashes), Glc (dots) and controls (solid line), respectively, as described in Experiment 1.
# [2] = Acute toxicology studies in rats (feeding); assay type: in vivo; details: for rate of weight gain and growth compared to control animals: fed in significant amounts (glucosamine) or equimolar amounts (glucose)
# Description: Acute toxicology studies were carried out in order to evaluate the toxicity in rats of the aforesaid compounds.
# [3] = Experiment 4: weight gain of rats fed ad libitum and gavaged with various amounts of supplement; assay type: in vivo, Sprague Dawley male rats; details: for effect on weight gain: 2000 mg/kg by gavage
# Description: (§1) For the data illustrated in FIG. 4, thirty Sprague Dawley male rats were adapted for one week so that each of their weights at the onset of treatment was approximately 185 grams. Each treatment group consisted of six animals, each administered one of the following treatments: water, 20 mg/kg GlcNBu, 200 mg/kg GlcNBu, 2000 mg/kg GlcNBu of 2000 mg/kg GlcN. All animals were fed Purina Rat Chow and water ad libitum. […] For nine days, the compounds were administered using the gavage technique; half doses being administered at 08:00 and at 17:00. Final urine samples were collected, histological examinations were performed to identify any overt signs of damage and then samples from each were harvested. Urinanalysis was performed using reagent strips (Multistix 8 SG from Bayer Inc. Healthcare Division, Etobicoke ON). […] No symptoms of neurological damage such as seizures or problems with vision were observed. All animals were well groomed and clean, and their snouts were normal.
# [4] = Setnikar I et al. Arzneimittelforschung 1986; cited from earlier work
# [5] = Experiment 2: weight gain of rats restricted to 10 g (later 15 g) chow/day, supplement dissolved in water then solid; assay type: in vivo, Sprague Dawley male rats
# Description: The animals were maintained in metabolic cages for the duration of the study (FIG. 2). Parameters of behavior and physical appearance were observed daily for any indications of toxicological complications. Twelve Sprague Dawley male rats were restricted to 10 g of Purina Rat Chow per day for eight days. Treatment groups were provided with water containing 20 mg/mL GlcN or GlcNBu. Daily volumes of urine produced and water consumed were recorded. The mean water consumption (ml/day) for the three groups was: 22.80, 24.45 and 21.45 for the control, the GlcN-supplemented and the GlcNBu-supplemented groups, respectively. These values were not statistically significant. On day nine of the study, untreated water was provided and the mass of rat chow given daily was increased to 15 g, supplemented with an additional 1.0 g of solid treatment compound. On day 18, the animals were sacrificed by CO2 asphyxiation and their organs were inspected for damage.
# [6] = Experiment 3: weight gain of rats restricted to 10 g chow/day and gavaged with supplement; assay type: in vivo, Sprague Dawley male rats; details: 300 mg by gavage three times daily, by the eighth day of treatment
# Description: The weights, and behavioral and physical parameters of 20 Sprague Dawley male rats, 5 per treatment group, were monitored over a ten-day period. The control group was given Purina Rat Chow ad libitum. The treatment groups were restricted to 10 g of rat chow per day and were supplemented with one of 300 mg GlcNBu, 300 mg GlcN or water, administered by gavage three times daily (FIG. 3). The animals were then sacrificed by CO2 asphyxiation and their organs checked for signs of damage.
# [7] = Experiment 4: toxicity observations (behaviour, histological examination, urinanalysis); assay type: in vivo; details: gavage nine days; GlcN 2000 mg/kg, GlcNBu 20, 200, 2000 mg/kg; data not shown
# Description: as §1
compound,measurement,setting,value
"O=C[C@H](O)[C@@H](O)[C@H](O)[C@H](O)CO [Glc, D-glucose, reference compound]",average weights and rates of weight gain and growth,[1],essentially identical
same,average rates of weight gain and growth and body weights,[1],no difference
same,"stimulation of weight gain and growth (overall, Experiment 1)",[1],failed to stimulate growth or weight gain
same,"mean density value of autoradiograms in the region of the epiphyseal growth plate (area under scan curve; black = 0, white = 255)",epiphyseal growth plate,127.1
same,"incorporation of radioisotope into sulfated glycosaminoglycans of proteoglycans of the epiphyseal growth plates, compared to control",epiphyseal growth plate,(relatively small) stimulation of epiphyseal plate metabolism
same,rate of weight gain and growth compared to control animals,[2],no significant change
"N[C@H]1C(O)O[C@H](CO)[C@@H](O)[C@@H]1O (stereo partly shown) [GlcN, glucosamine]",effect on weight gain,[3]; nine days,depression of weight gain
same,rate of weight gain and growth compared to control animals,[2],decrease in the rate of weight gain and growth
same,concentrations of free glucosamine in the circulation after ingestion,[4],only very low or not detectable concentrations
"CCCC(=O)N[C@H]1C(O)O[C@H](CO)[C@@H](O)[C@@H]1O (stereo partly drawn) [GlcNBu, N-butyryl-D-glucosamine]",average weights and rates of weight gain and growth,[1],significantly higher than those of the other groups
same,average rates of weight gain and growth and body weights,[1],further increase in the rate and average body weights
same,"stimulation of weight gain and growth (overall, Experiment 1)",[1],stimulated the weight gain and growth
same,weight gained over the water controls,"[5]; 20 mg/mL in water for 8 days, then 1.0 g solid with 15 g chow, maintained after five days of treatment",consistent statistical differences in weight gained over the water controls
same,growth compared to the GlcN group,[5]; starting at about day 10,grew somewhat more rapidly
same,increase in weight compared to the same amount of GlcN,[6],significantly greater increase in weight
same,increase in weights compared to water controls,"[3]; 20 mg/kg by gavage, by day 3",statistically significant from those of the water controls
same,average weight gain compared to the GlcN group (2000 mg/kg),"[3]; 20 mg/kg by gavage, margin became insignificant by day seven",significantly higher
same,increase in weights compared to water controls,"[3]; 200 mg/kg by gavage, by day 5",statistically significant from those of the water controls
same,average weight gain compared to the GlcN group (2000 mg/kg),"[3]; 200 mg/kg by gavage, significantly heavier by day 4",significantly higher
same,effect on weight gain,[3]; nine days,"lesser stimulations, which were, nevertheless, higher than the control"
same,dose of maximal stimulatory effect on weight gain and growth,"[3]; gavage, nine days, doses 20, 200, 2000 mg/kg",200 mg/kg
same,histological examinations for signs of toxicity,[7],failed to reveal any signs of toxicity
same,"mean density value of autoradiograms in the region of the epiphyseal growth plate (area under scan curve; black = 0, white = 255)",epiphyseal growth plate,143.2
same,"incorporation of radioisotope into sulfated glycosaminoglycans of proteoglycans of the epiphyseal growth plates, compared to control",epiphyseal growth plate,less incorporation of the radioisotope
same,upper limit of feeding in terms of observed toxicity,"[2]; oral feeding, rats",no upper limit
